# Results published in the supplement of paper PMC10307832.
# Experiments:
# Test in all cases: relative viability (nuclei count vs DMSO), 5 days (fraction); higher = more cells survive
# NCI-H2085 = tested on: NCI-H2085
# Summary of the method: (§1)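 A single step with final 0.05% Triton X-100, 1% formaldehyde and 1 ug/ml Hoechst fixed the cells and stained nuclei 5 days after treatment. Lung cancer cell lines in 1536-well plates had been treated by pin tool the day after seeding with one drug alone or a fixed anchor-drug dose plus five library-drug doses (not always all listed) in √10 steps, and nuclei were counted on 4× images. Relative viability is the ratio of nuclei in treated wells to nuclei in vehicle wells, taken as the median of duplicate plates.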
# NCI-H2170 = tested on: NCI-H2170
# Summary of the method: as §1
# ABC-1 = tested on: ABC-1
# Summary of the method: as §1
# SK-MES-1 = tested on: SK-MES-1
# Summary of the method: as §1
# HOP-62 = tested on: HOP-62
# Summary of the method: as §1
# NCI-H727 = tested on: NCI-H727
# Summary of the method: as §1
# NCI-H1755 = tested on: NCI-H1755
# Summary of the method: as §1
# NCI-H322M = tested on: NCI-H322M
# Summary of the method: as §1
# NCI-H2009 = tested on: NCI-H2009
# Summary of the method: as §1
# UMC-11 = tested on: UMC-11
# Summary of the method: as §1
# LCLC-97TM1 = tested on: LCLC-97TM1
# Summary of the method: as §1
# RERF-LC-KJ = tested on: RERF-LC-KJ
# Summary of the method: as §1
# NCI-H1437 = tested on: NCI-H1437
# Summary of the method: as §1
# LOU-NH91 = tested on: LOU-NH91
# Summary of the method: as §1
# NCI-H23 = tested on: NCI-H23
# Summary of the method: as §1
# NCI-H650 = tested on: NCI-H650
# Summary of the method: as §1
# NCI-H2405 = tested on: NCI-H2405
# Summary of the method: as §1
# NCI-H2023 = tested on: NCI-H2023
# Summary of the method: as §1
# NCI-H1355 = tested on: NCI-H1355
# Summary of the method: as §1
# HCC-78 = tested on: HCC-78
# Summary of the method: as §1
# NCI-H1792 = tested on: NCI-H1792
# Summary of the method: as §1
smiles,measurement,setting,value
CCCCCCCCCCCC1=C(O)C(=O)C=C(O)C1=O [Embelin] + CS(=O)(=O)CCNCc1ccc(-c2ccc3ncnc(Nc4ccc(OCc5cccc(F)c5)c(Cl)c4)c3c2)o1 [Lapatinib] (partner 2 µM),relative viability,NCI-H2085; first compound 0.08 µM,0.743
same,relative viability,NCI-H2085; first compound 0.8 µM,0.92
same,relative viability,NCI-H2085; first compound 2.53 µM,0.778
same,relative viability,NCI-H2085; first compound 8 µM,0.731
same,relative viability,NCI-H2170; first compound 0.08 µM,0.276
same,relative viability,NCI-H2170; first compound 0.8 µM,0.282
same,relative viability,NCI-H2170; first compound 2.53 µM,0.275
same,relative viability,NCI-H2170; first compound 8 µM,0.253
same,relative viability,ABC-1; first compound 0.08 µM,1.28
same,relative viability,ABC-1; first compound 0.8 µM,1.7
same,relative viability,ABC-1; first compound 2.53 µM,1.25
same,relative viability,ABC-1; first compound 8 µM,1.1
same,relative viability,SK-MES-1; first compound 0.08 µM,0.496
same,relative viability,SK-MES-1; first compound 0.8 µM,0.496
same,relative viability,SK-MES-1; first compound 2.53 µM,0.516
same,relative viability,SK-MES-1; first compound 8 µM,0.477
same,relative viability,HOP-62; first compound 0.08 µM,1.01
same,relative viability,HOP-62; first compound 0.8 µM,1.08
same,relative viability,HOP-62; first compound 2.53 µM,1.1
same,relative viability,HOP-62; first compound 8 µM,0.908
same,relative viability,NCI-H727; first compound 0.08 µM,0.737
same,relative viability,NCI-H727; first compound 0.8 µM,0.753
same,relative viability,NCI-H727; first compound 2.53 µM,1.13
same,relative viability,NCI-H727; first compound 8 µM,0.738
same,relative viability,NCI-H1755; first compound 0.08 µM,1.03
same,relative viability,NCI-H1755; first compound 0.8 µM,1.04
same,relative viability,NCI-H1755; first compound 2.53 µM,1.06
same,relative viability,NCI-H1755; first compound 8 µM,0.97
same,relative viability,NCI-H322M; first compound 0.08 µM,0.548
same,relative viability,NCI-H322M; first compound 0.8 µM,0.614
same,relative viability,NCI-H322M; first compound 2.53 µM,0.726
same,relative viability,NCI-H322M; first compound 8 µM,0.561
same,relative viability,NCI-H2009; first compound 0.08 µM,1.05
same,relative viability,NCI-H2009; first compound 0.8 µM,1.09
same,relative viability,NCI-H2009; first compound 2.53 µM,0.815
same,relative viability,NCI-H2009; first compound 8 µM,0.879
same,relative viability,UMC-11; first compound 0.08 µM,1.12
same,relative viability,UMC-11; first compound 0.8 µM,1.17
same,relative viability,UMC-11; first compound 2.53 µM,1.08
same,relative viability,UMC-11; first compound 8 µM,0.877
same,relative viability,LCLC-97TM1; first compound 0.8 µM,1.48
same,relative viability,LCLC-97TM1; first compound 2.53 µM,0.823
same,relative viability,LCLC-97TM1; first compound 8 µM,0.86
same,relative viability,RERF-LC-KJ; first compound 0.08 µM,0.81
same,relative viability,RERF-LC-KJ; first compound 0.8 µM,0.935
same,relative viability,RERF-LC-KJ; first compound 2.53 µM,0.991
same,relative viability,RERF-LC-KJ; first compound 8 µM,0.84
same,relative viability,NCI-H1437; first compound 0.08 µM,0.784
same,relative viability,NCI-H1437; first compound 0.8 µM,0.938
same,relative viability,NCI-H1437; first compound 2.53 µM,1.04
same,relative viability,NCI-H1437; first compound 8 µM,0.466
same,relative viability,LOU-NH91; first compound 0.08 µM,0.823
same,relative viability,LOU-NH91; first compound 0.8 µM,0.99
same,relative viability,LOU-NH91; first compound 2.53 µM,0.866
same,relative viability,LOU-NH91; first compound 8 µM,0.63
same,relative viability,NCI-H23; first compound 0.08 µM,1.17
same,relative viability,NCI-H23; first compound 0.8 µM,1.2
same,relative viability,NCI-H23; first compound 2.53 µM,1.36
same,relative viability,NCI-H23; first compound 8 µM,1.07
same,relative viability,NCI-H650; first compound 0.08 µM,0.677
same,relative viability,NCI-H650; first compound 0.8 µM,1.47
same,relative viability,NCI-H650; first compound 2.53 µM,0.831
same,relative viability,NCI-H650; first compound 8 µM,0.658
same,relative viability,NCI-H2405; first compound 0.08 µM,1.16
same,relative viability,NCI-H2405; first compound 0.8 µM,1.48
same,relative viability,NCI-H2405; first compound 2.53 µM,1.06
same,relative viability,NCI-H2405; first compound 8 µM,1.02
same,relative viability,NCI-H2023; first compound 0.08 µM,0.837
same,relative viability,NCI-H2023; first compound 0.8 µM,0.979
same,relative viability,NCI-H2023; first compound 2.53 µM,0.838
same,relative viability,NCI-H2023; first compound 8 µM,0.477
same,relative viability,NCI-H1355; first compound 0.08 µM,0.878
same,relative viability,NCI-H1355; first compound 0.8 µM,1.15
same,relative viability,NCI-H1355; first compound 2.53 µM,1.07
same,relative viability,NCI-H1355; first compound 8 µM,0.686
same,relative viability,HCC-78; first compound 0.08 µM,0.767
same,relative viability,HCC-78; first compound 0.8 µM,0.703
same,relative viability,HCC-78; first compound 2.53 µM,0.796
same,relative viability,HCC-78; first compound 8 µM,0.616
same,relative viability,NCI-H1792; first compound 0.08 µM,0.917
same,relative viability,NCI-H1792; first compound 0.8 µM,0.877
same,relative viability,NCI-H1792; first compound 2.53 µM,1.09
same,relative viability,NCI-H1792; first compound 8 µM,1.06
